Reference: ChEMBL document CHEMBL5143593 (Eur J Med Chem, 2022)
Calls of active or inactive are those of the source. No cut-off for these calls is given here.

Tests used:
[1] = target: 5-hydroxytryptamine receptor 2A (Homo sapiens, UniProt P28223); experiment: Displacement of [3H]-ketanserin from human 5-HT2A receptor expressed in CHO-K1 cells measured after 1.5 hrs by Microbeta plate reader method; format: cell-based
[2] = Cytotoxicity against CHO-K1 cells measured after 24 hrs by MTT assay; format: toxicity, cell-based, Cricetulus griseus; conditions: Chinese hamster
D(2) dopamine receptor = D(2) dopamine receptor (Homo sapiens, UniProt P14416); experiment: Displacement of [3H]-raclopride from human D2L receptor expressed in HEK293 cells measured after 1 hr by Microbeta plate reader method; format: cell-based
[3] = Permeability of compound at pH 7.4 by PAMPA assay
[4] = target: T1, 5-hydroxytryptamine receptor 3A (Cavia porcellus, UniProt O70212); experiment: Antagonist activity at 5-HT3 receptor in guinea-pig ileum assessed as inhibition of 5HT-induced contraction; format: tissue-based
T1 sequence (O70212 whole entry): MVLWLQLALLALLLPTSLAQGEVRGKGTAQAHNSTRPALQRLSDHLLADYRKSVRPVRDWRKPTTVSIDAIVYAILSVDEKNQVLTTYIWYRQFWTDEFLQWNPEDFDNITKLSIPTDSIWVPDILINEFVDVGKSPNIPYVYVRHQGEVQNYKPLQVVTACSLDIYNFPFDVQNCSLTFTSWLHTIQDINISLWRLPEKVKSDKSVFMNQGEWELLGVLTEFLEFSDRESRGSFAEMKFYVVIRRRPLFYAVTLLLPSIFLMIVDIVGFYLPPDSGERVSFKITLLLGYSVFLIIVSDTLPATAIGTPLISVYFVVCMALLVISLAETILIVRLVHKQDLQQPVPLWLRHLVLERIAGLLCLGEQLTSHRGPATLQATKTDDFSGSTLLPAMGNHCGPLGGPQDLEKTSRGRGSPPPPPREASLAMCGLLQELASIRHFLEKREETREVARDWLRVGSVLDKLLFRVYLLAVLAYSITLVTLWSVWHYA

[5] = target: T2, 5-hydroxytryptamine receptor 3A (Homo sapiens) (UniProt P46098); experiment: Competitive binding affinity towards 5-HT3 receptor (unknown origin); conditions: filed as antagonist
T2 sequence (whole entry): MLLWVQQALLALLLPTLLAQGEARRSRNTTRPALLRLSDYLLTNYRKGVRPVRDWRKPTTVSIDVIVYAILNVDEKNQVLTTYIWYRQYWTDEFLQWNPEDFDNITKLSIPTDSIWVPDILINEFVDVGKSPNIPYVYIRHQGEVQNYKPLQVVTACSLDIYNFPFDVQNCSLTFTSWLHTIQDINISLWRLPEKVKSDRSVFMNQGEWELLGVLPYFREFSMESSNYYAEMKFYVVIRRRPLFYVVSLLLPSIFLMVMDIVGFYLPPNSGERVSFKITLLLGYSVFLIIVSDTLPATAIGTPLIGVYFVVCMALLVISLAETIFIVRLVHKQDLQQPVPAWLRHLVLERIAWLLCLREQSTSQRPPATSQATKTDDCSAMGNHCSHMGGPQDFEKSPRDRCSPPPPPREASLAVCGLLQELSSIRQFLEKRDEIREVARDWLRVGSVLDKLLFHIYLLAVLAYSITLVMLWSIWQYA

[6] = Cytotoxicity against HEK293 cells measured after 24 hrs by MTT assay; format: toxicity, cell-based; conditions: human
Rattus norvegicus [7] = experiment: Antipsychotic activity in male Wistar rat assessed as inhibition of amphetamine-stimulated locomotor activity at 1 mg/kg, ip; format: functional, organism-based
Rattus norvegicus [8] = experiment: Antipsychotic activity in male Wistar rat assessed as restoration of prepulse inhibition of acoustic startle response at 1 mg/kg, ip; format: functional, organism-based
[9] = target: 5-hydroxytryptamine receptor 7 (Homo sapiens, UniProt P34969); experiment: Displacement of [3H]-5-CT from human 5-HT7b receptor expressed in HEK293 cells measured after 1 hr by Microbeta plate reader method; format: cell-based
[10] = AUC in male Wistar rat plasma at 2 mg/kg, ip; format: ADME, organism-based; parameters: dose 2 mg/kg, route ip; conditions: in vivo
[11] = Toxicity in male Wistar rat assessed as maximum tolerated dose administered intraperitoneally; conditions: in vivo, route ip
[12] = Toxicity in male Wistar rat assessed as effect on AST level at 2 mg/kg, ip; format: organism-based; conditions: in vivo
[13] = target: T3, 5-hydroxytryptamine receptor 1A (Homo sapiens, UniProt P08908); experiment: Displacement of [3H]-8-OH-DPAT from human 5-HT1A receptor expressed in HEK293 cells measured after 1 hr by Microbeta plate reader method; format: cell-based
T3 sequence (P08908 whole entry): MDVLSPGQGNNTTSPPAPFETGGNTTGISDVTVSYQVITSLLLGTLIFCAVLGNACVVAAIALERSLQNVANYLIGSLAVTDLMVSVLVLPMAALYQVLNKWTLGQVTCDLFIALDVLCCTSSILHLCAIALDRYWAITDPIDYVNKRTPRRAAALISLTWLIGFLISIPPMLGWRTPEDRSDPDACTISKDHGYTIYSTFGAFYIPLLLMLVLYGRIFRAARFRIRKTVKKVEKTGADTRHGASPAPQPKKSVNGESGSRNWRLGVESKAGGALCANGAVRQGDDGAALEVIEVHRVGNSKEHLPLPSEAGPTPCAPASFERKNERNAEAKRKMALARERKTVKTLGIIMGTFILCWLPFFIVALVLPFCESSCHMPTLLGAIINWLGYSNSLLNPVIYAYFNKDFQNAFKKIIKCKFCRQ

[14] = Half-life in male Wistar rat brain at 2 mg/kg, ip; format: ADME, organism-based
[15] = Toxicity in male Wistar rat assessed as abnormalities in liver at 2 mg/kg, ip; format: organism-based; conditions: in vivo
[16] = Half-life in male Wistar rat plasma at 2 mg/kg, ip; format: ADME, organism-based
[17] = Cmax in male Wistar rat plasma at 2 mg/kg, ip; format: ADME, organism-based; parameters: dose 2 mg/kg, route ip
[18] = Tmax in male Wistar rat plasma at 2 mg/kg, ip; format: ADME, organism-based
[19] = AUC in male Wistar rat brain at 2 mg/kg, ip; format: ADME, organism-based; parameters: dose 2 mg/kg, route ip; conditions: in vivo
[20] = Toxicity in male Wistar rat assessed as abnormalities in kidney at 2 mg/kg, ip; format: organism-based; conditions: in vivo
[21] = Toxicity in male Wistar rat assessed as effect on creatine kinase level in plasma at 2 mg/kg, ip; format: organism-based; conditions: in vivo
[22] = MRT in male Wistar rat plasma at 2 mg/kg, ip; format: ADME, organism-based
[23] = Cmax in male Wistar rat brain at 2 mg/kg, ip; format: ADME, organism-based; parameters: dose 2 mg/kg, route ip
[24] = Toxicity in male Wistar rat assessed as effect on ALT level at 2 mg/kg, ip; format: organism-based; conditions: in vivo
[25] = Toxicity in male Wistar rat assessed as adverse effects at 2 mg/kg, ip; format: organism-based; conditions: in vivo
[26] = Tmax in male Wistar rat brain at 2 mg/kg, ip; format: ADME, organism-based
[27] = MRT in male Wistar rat brain at 2 mg/kg, ip; format: ADME, organism-based

Sequence of D(2) dopamine receptor (P14416 whole entry): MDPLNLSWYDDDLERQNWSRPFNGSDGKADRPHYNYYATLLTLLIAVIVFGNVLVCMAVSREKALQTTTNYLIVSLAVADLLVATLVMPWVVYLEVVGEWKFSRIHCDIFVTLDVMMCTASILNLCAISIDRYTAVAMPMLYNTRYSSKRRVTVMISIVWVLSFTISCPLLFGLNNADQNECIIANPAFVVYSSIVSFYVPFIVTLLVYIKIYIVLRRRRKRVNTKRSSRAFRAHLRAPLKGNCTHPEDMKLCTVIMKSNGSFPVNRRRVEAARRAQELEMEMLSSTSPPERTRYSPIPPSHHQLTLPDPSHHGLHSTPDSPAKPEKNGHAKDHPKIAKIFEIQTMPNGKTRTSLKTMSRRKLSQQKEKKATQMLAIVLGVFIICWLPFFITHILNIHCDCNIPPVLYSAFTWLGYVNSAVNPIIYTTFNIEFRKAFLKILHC
Sequence of 5-hydroxytryptamine receptor 2A (P28223 whole entry): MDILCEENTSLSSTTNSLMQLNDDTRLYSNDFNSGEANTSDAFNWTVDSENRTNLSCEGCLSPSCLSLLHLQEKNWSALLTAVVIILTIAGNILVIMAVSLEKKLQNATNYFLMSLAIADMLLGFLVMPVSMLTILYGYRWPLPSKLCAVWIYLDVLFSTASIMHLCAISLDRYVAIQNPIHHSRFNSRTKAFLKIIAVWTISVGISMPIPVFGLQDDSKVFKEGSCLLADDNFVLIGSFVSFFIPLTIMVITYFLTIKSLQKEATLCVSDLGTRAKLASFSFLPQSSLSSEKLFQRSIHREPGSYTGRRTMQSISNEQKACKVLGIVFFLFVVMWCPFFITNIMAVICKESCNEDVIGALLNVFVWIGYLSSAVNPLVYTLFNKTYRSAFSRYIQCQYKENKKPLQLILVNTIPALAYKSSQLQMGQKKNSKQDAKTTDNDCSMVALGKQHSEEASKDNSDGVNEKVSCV
Sequence of 5-hydroxytryptamine receptor 7 (P34969 whole entry): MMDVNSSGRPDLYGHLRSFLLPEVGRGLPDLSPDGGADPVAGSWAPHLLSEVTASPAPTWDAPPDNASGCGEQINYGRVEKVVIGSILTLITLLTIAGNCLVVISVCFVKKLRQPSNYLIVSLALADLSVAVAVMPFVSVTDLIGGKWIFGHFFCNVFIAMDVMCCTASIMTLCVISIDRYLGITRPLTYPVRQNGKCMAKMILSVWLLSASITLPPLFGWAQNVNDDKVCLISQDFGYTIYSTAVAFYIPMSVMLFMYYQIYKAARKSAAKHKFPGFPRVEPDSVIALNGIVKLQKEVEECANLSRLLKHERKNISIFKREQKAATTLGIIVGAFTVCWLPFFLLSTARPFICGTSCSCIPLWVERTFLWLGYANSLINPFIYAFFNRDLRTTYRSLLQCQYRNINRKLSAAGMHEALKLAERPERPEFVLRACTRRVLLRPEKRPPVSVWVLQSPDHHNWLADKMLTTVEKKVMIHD

N#Cc1cccnc1N1CCN(CCCCOc2ccc3c(c2)NC(=O)CC3)CC1
Ki [1]: 7.4 µM | IC50 at 24 h [2]: 1000 µM | Ki (D(2) dopamine receptor): 2.1 µM | Papp [3]: 12 ×10⁻⁶ cm/s

COc1ccccc1N1CCN(CCCN2CCN(C(=O)c3ccccc3)CC2)CC1
Ki [1]: 30 µM | IC50 at 24 h [2]: 1300 µM | Ki (D(2) dopamine receptor): 0.26 µM | Papp [3]: 11 ×10⁻⁶ cm/s

COc1ccccc1N1CCN(CCN2CCN(c3ncccc3C#N)CC2)CC1
IC50 at 24 h [2]: 780 µM | IC50 [4]: > 10 µM | Ki (D(2) dopamine receptor): 0.13 µM | Papp [3]: 14 ×10⁻⁶ cm/s

COc1ccccc1N1CCN(CCN2CCN(C(=O)c3nn(C)c4ccccc34)CC2)CC1
Ki [1]: 8.3 µM | IC50 at 24 h [2]: 780 µM | IC50 [4]: 3 µM | Ki (D(2) dopamine receptor): 0.63 µM | Papp [3]: 13 ×10⁻⁶ cm/s

COc1ccccc1N1CCN(CCCN2CCN(C(=O)c3ccccn3)CC2)CC1
IC50 at 24 h [2]: 1900 µM | Ki (D(2) dopamine receptor): 0.59 µM | Papp [3]: 8.7 ×10⁻⁶ cm/s

COc1ccc(N2CCN(CCCN3CCN(C(=O)c4ccccc4)CC3)CC2)cc1
Ki [1]: 30 µM | IC50 at 24 h [2]: > 400 µM | IC50 [4]: > 10 µM | Ki (D(2) dopamine receptor): 5.5 µM | Papp [3]: 23 ×10⁻⁶ cm/s

N#Cc1cccnc1N1CCN(CCCOc2ccc3c(c2)NC(=O)CC3)CC1
Ki [1]: 5.3 µM | IC50 at 24 h [2]: 350 µM | pKb [5]: 5 | Ki (D(2) dopamine receptor): 0.081 µM | Papp [3]: 14 ×10⁻⁶ cm/s

O=C1CCc2ccc(OCCCCN3CCN(c4cccc(Cl)c4Cl)CC3)cc2N1 [ARIPIPRAZOLE]
IC50 at 24 h [6]: > 100 µM | IC50 [4]: 630 µM | Activity (Rattus norvegicus [7]): Active | Activity (Rattus norvegicus [8]): Active

O=C(c1ccccc1)N1CCN(CCCN2CCN(c3ccccc3)CC2)CC1
Ki [1]: 6.5 µM | IC50 at 24 h [2]: 1300 µM | Ki (D(2) dopamine receptor): 2.1 µM | Papp [3]: 20 ×10⁻⁶ cm/s

Cn1nc(C(=O)N2CCN(CCN3CCN(c4cccc(Cl)c4Cl)CC3)CC2)c2ccccc21
Ki [1]: 1.8 µM | IC50 at 24 h [2]: 45 µM | IC50 [4]: 1 µM | Ki (D(2) dopamine receptor): 0.13 µM | Papp [3]: 6.8 ×10⁻⁶ cm/s

CN1CCN(c2nc3ncccc3cc2C#N)CC1
Kb ([4]; read-out: pA2 (converted)): 0.0398 µM

O=C(c1ccccn1)N1CCN(CCCN2CCN(c3cccc(Cl)c3Cl)CC2)CC1
Ki [1]: 2.3 µM | IC50 at 24 h [2]: 290 µM | pKb [5]: 5.3 | Ki (D(2) dopamine receptor): 0.082 µM | Papp [3]: 17 ×10⁻⁶ cm/s

CN1CCN(C2=Nc3cc(Cl)ccc3Nc3ccccc32)CC1 [CLOZAPINE]
IC50 [4]: 110 µM

N#Cc1cccnc1N1CCN(CCCN2CCN(c3cccc(Cl)c3Cl)CC2)CC1
Ki [9]: 0.57 µM | AUC [10]: 10886.71 nmol·min/L | MTD [11]: 0.2 mg/kg | Activity [12]: Non-Toxic | Ki [1]: 0.47 µM | Ki [13]: 0.019 µM | half-life [14]: 4.39 h | Activity [15]: Non-Toxic | half-life [16]: 1.67 h | Cmax [17]: 97.9 nM | Tmax [18]: 3 min | AUC [19]: 88483.21 nmol·min/L | Activity [20]: Non-Toxic | Activity [21]: Non-Toxic | MRT [22]: 3.79 h | Cmax [23]: 266 nM | IC50 [4]: 0.3 µM | Activity [24]: Non-Toxic | Activity [25]: Non-Toxic | Tmax [26]: 1 h | Papp [3]: 5.9 ×10⁻⁶ cm/s | MRT [27]: 7.65 h

N#Cc1cccnc1N1CCN(CCCN2CCN(c3ccccc3)CC2)CC1
Ki [1]: 13 µM | IC50 at 24 h [2]: 770 µM | IC50 [4]: > 3 µM | Ki (D(2) dopamine receptor): 0.77 µM | Papp [3]: 25 ×10⁻⁶ cm/s

O=C1CCc2ccc(OCCCCN3CCN(C(=O)c4ccccn4)CC3)cc2N1
Ki [1]: 6.9 µM | IC50 at 24 h [2]: 89 µM | IC50 [4]: > 10 µM | Ki (D(2) dopamine receptor): 0.009 µM | Papp [3]: 9.4 ×10⁻⁶ cm/s

CN(C)CCCN1c2ccccc2Sc2ccc(Cl)cc21 [CHLORPROMAZINE]
Papp [3]: 9.6 ×10⁻⁶ cm/s

COc1ccccc1N1CCN(CCCNC(=O)c2cnccn2)CC1
Ki [1]: 35.8 µM | IC50 at 24 h [2]: > 500 µM | Ki (D(2) dopamine receptor): 0.86 µM | Papp [3]: 25 ×10⁻⁶ cm/s

O=C(c1ccccc1)N1CCN(CCCN2CCN(c3cccc(Cl)c3Cl)CC2)CC1
Ki [1]: 1.7 µM | IC50 at 24 h [2]: 110 µM | IC50 [4]: > 3 µM | Ki (D(2) dopamine receptor): 0.12 µM | Papp [3]: 23 ×10⁻⁶ cm/s

N#Cc1cccnc1N1CCN(CCN2CCN(c3cccc(Cl)c3Cl)CC2)CC1
Ki [1]: 1.3 µM | IC50 at 24 h [2]: 220 µM | IC50 [4]: 1 µM | Ki (D(2) dopamine receptor): 0.21 µM | Papp [3]: 7.9 ×10⁻⁶ cm/s

NS(=O)(=O)c1cc2c(cc1Cl)N=CNS2(=O)=O [CHLOROTHIAZIDE]
Papp [3]: 0.3 ×10⁻⁶ cm/s

Cc1nccn1CC1CCc2c(c3ccccc3n2C)C1=O (configuration not stated) [ONDANSETRON]
Ki [9]: > 1 µM | Ki [13]: > 10 µM | pKb [5]: 7.36 | Ki (D(2) dopamine receptor): > 10 µM

COc1ccc(N2CCN(CCCN3CCN(c4ncccc4C#N)CC3)CC2)cc1
Ki [1]: 40 µM | IC50 at 24 h [2]: 360 µM | IC50 [4]: 3 µM | Ki (D(2) dopamine receptor): 1.5 µM | Papp [3]: 24 ×10⁻⁶ cm/s
